The values below come from patent US6706663B2, “Herbicidal 3-heterocyclic substituted benzisothiazole and benzisoxazole compounds” (Wyeth, priority 2000, dated 2004).

This assay concerns GLXMA (Soybean). Description: Postemergence herbicidal evaluation. The class given is in vivo, Glycine max, (L.) Merr. As to conditions: for GLXMA herbicidal rating: postemergence. The procedure:
In the tests, seedling plants are grown in jiffy flats for about two weeks. The test compounds are dispersed in 50/50 acetone/water mixtures containing 0.5% TWEEN® 20, a polyoxyethylene sorbitan monolaurate surfactant of Atlas Chemical Industries, in sufficient quantities to provide the equivalent of about 0.0040 kg to 1.000 kg per hectare of active compound when applied to the plants through a spray nozzle operating at 40 psi for a predetermined time. After spraying, the plants are placed on greenhouse benches and are cared for in accordance with conventional greenhouse procedures. From four to five weeks after treatment, the seedling plants are examined and rated according to the rating system set forth below. Where more than one test is involved for a given compound, the data are averaged.
Results of herbicide evaluation are expressed on a rating scale (0-9). The scale is based upon a visual observation of plant stand, vigor, malformation, size, chlorosis and overall plant appearance as compared with a control.

As to `Cc1ccsc1-c1nsc2ccc(-n3c(=O)cc(C(F)(F)F)n(C)c3=O)cc12` [Compound 4, 1-methyl-3-[3-(3-methyl-2-thienyl)-1,2-benzisothiazol-5-yl]-6-(trifluoromethyl)uracil], the “Postemergence herbicidal rating, GLXMA” value (rate 0.0320 kg/ha) is on record as 9.0.

`Cn1c(C(F)(F)F)cc(=O)n(-c2cc3c(C4OCCO4)nsc3cc2F)c1=O` [Compound 61, 3-[3-(1,3-dioxolan-2-yl)-6-fluoro-1,2-benzisothiazol-5-yl]-1-methyl-6-(trifluoromethyl)uracil]: the GLXMA herbicidal rating is 8.5 (rate 0.0320 kg/ha) and 8.5 (rate 0.0620 kg/ha).
